# Test results from EP0324574B1, “Immunomodulating bryostatins” (priority 1988, dated 1989).
# Experiments:
# tumor promoters = assay: antagonism of tumor promoters
# [1] = system: cytotoxic T-cell clone 2C; assay: Ag-nonspecific cytotoxicity of CTL clone 2C against EL-4 target cells (51Cr-release); assay type: cell-based, murine; details: for lysis of EL-4 cells by CTL clone 2C: added to cell mixture, different E/T ratios
# Method: (§1) Effector cells and ⁵¹Cr-labeled target cells were mixed and incubated in triplicate in a 96-well plate at different E/T ratios as described in Grabstein, K. 1980. Cell-mediated cytolytic responses. In Selected Methods in Cellular Immunology, B. B. Mishel and S. M. Shiigi, eds. (San Francisco, Freeman), pp. 124. The target cell number was 10⁴ cells per well when ⁵¹Cr-release assay was performed with the cytolytic T-cell clones. 5x10³ target cells per well were used when spleen cells and lymph node T-cells were studied as effectors. PMA, bryostatin 1 and bryostatin 2 were added at a final concentration ranging from 0.5 ng/ml to 100 ng/ml. Lectin- dependent cytotoxicity assay was performed by adding 10 µg/ml Con A to the mixture of CTL and ⁵¹Cr-labeled target cells. After incubation, the 96-well plate was centrifuged (1 min, 800 rpm, 4|C), all supernatants were harvested, radioactivity in the samples was counted and the mean values for each triplicate were determined. Percent of specific ⁵¹Cr release was calculated as 100X (a-b)/(t-b), where a is ⁵¹Cr release in the presence of CTL, b is spontaneous release from labeled target cells in the absence of CTL and t is the total number of cpm in the target cells.
# No ⁵¹Cr-release was observed when ⁵¹Cr-labeled EL-4 cells ([…]) were mixed with the cytotoxic T-cell clone 2C (anti-H-2L^d) at different E/T ratios.
# CTL 2C clone were incubated 4 hours with ⁵¹Cr-labeled syngeneic EL4 target cells at different E/T ratios in the presence of different concentrations of PMA or bryostatin 2.
# CTL (clone BM10-37) = assay: BLT-Esterase secretion assay in CTL clone; assay type: cell-based, murine
# Method: (§2) This assay was performed as described in Takayama, H., et al. 1987. Antigen receptor triggered secretion of a trypsin-type esterase from cytotoxic T-lymphocytes. J. Immunol. 138:566. Briefly, effector cells were resuspended in the incubation media and incubated in triplicate in a 96-well plate (Immulon) at a concentration of 10⁵ cells per 100 µl. Phorbol myristate acetate ("PMA"), bryostatin 1 and bryostatin 2 were added at a final concentration of 10 ng/ml, the Ca⁺⁺ ionophore A23187 (free acid, Sigma C7522) was added at a final concentration of 0.5 µ g/ml. Total volume per well was adjusted to 200 µl. After 4 hours of incubation (37°C, 5% CO₂) the plates were spun (1 min., 200 xG) and 50 µl of the supernatant was harvested. Total BLT-E content was determined by solubilizing 10⁵ effector cells with 0.1% Triton X-100 in PBS.
# Using a newly developed BLT-esterase secretion assay (See: Takayama, H., et al, supra). the ability of bryostatins 1 and 2 to activate cytolytic T-cells and to trigger the exocytosis of granules from CTL was tested. […] The combination of bryostatin and Ca⁺⁺-ionophore, however, greatly enhances the activation of CTL and induces significant secretion of granule located enzyme. […] However, when equimolar concentrations of PMA and bryostatin are used, the amount of secreted BLT-Esterase was similar in both combinations.
# 10⁵ CTL (clone BM10-37) was incubated in a 96-well plate and stimulated by the addition of a PMA (10ng/ml) and A23187 (0.5 µg/ml). Specific BLT-E secretion was measured as described above.
# CTL OE4 cells = assay: Ag-specific cytotoxicity of CTL OE4 against P815 cells (51Cr-release); assay type: cell-based, murine; details: 10 ng/ml, P815 cells with CTL OE4 at various E/T ratios
# Method: Effector cells and ⁵¹Cr-labeled target cells were mixed and incubated in triplicate in a 96-well plate at different E/T ratios as described in Grabstein, K. 1980. Cell-mediated cytolytic responses. In Selected Methods in Cellular Immunology, B. B. Mishel and S. M. Shiigi, eds. (San Francisco, Freeman), pp. 124. The target cell number was 10⁴ cells per well when ⁵¹Cr-release assay was performed with the cytolytic T-cell clones. 5x10³ target cells per well were used when spleen cells and lymph node T-cells were studied as effectors. PMA, bryostatin 1 and bryostatin 2 were added at a final concentration ranging from 0.5 ng/ml to 100 ng/ml. Lectin- dependent cytotoxicity assay was performed by adding 10 µg/ml Con A to the mixture of CTL and ⁵¹Cr-labeled target cells. After incubation, the 96-well plate was centrifuged (1 min, 800 rpm, 4|C), all supernatants were harvested, radioactivity in the samples was counted and the mean values for each triplicate were determined. Percent of specific ⁵¹Cr release was calculated as 100X (a-b)/(t-b), where a is ⁵¹Cr release in the presence of CTL, b is spontaneous release from labeled target cells in the absence of CTL and t is the total number of cpm in the target cells. […]
# OE4 CXTL cells were incubated with 10⁴ Cr labeled P815-cells at different E/T ratios and a ⁵¹Cr-release was measured after 4 hours incubation. […]
# P388 in vitro cell line = details: against the P388 in vitro cell line; cited from earlier work
# small resting T-cells [2] = assay: BLT-E content of small resting T-cells after 3-day culture; assay type: cell-based, BALB/c mice; details: for expression of BLT-E activity in resting T-cells: added alone; for amount of BLT-E on a per cell basis: in combination with IL-4
# Method: as §2
# (§3) Mesenteric lymph nodes were harvested from virus-free BALB/c mice 8-12 weeks of age. After two nylon wool column passages, Ia positive cells were subsequently lysed with the anti-Ia monoclonal antibody M5/114 plus Low-Tox-M rabbit complement as described above. Small dense resting T-cells were then separated by a modified discontinuous Percoll gradient procedure (See: Defranco, et al. 1982. Frequency of B-lymphocytes responsive to antiimmunoglobulin. J. Exp. Med. 155:1523.). Purified T-cells which were harvested in the 66-70% density band were considered to be small resting T-cells.
# (§4) Small resting T-cells were purified from Balb/c mesenteric lymph nodes as described above. Purified cells were cultured for 3 days at a cell concentration of 10⁶ cells/ml either in media alone or in media plus different additions (rIL-2,100 U/ml; BSF-1, 2000 U/ml; bryostatin 1 or 2, 0.5 ng/ml). Cytotoxicity was measured in a 6 hour lectin mediated (Con A, 10 µg/ml) ⁵¹Cr-release assay. Results are shown for an E/T ratio of 100/l. For the determination of BLT-E content, 10⁶ cells of each of tested culture conditions were resuspended in 100 µl of media and solubilized with 1% Triton® X-100. Fifty l of cell suspension was used for measurement of BLT-esterase content as described above. Tested reagents when added alone to the cell cultures neither increased cellular BLT-esterase content nor induced cytotoxicity as shown in FIG. 7.
# [3] = system: M531 murine ovary sarcoma system; parameters: dose or concentration left out as unconfirmed; details: cited from earlier work
# [4] = system: murine P388 lymphocyte leukemia (PS) system; details: 10-70 µg/kg injection dose levels; cited from earlier work
# small resting T-cells [5] = assay: development of cytotoxicity in small resting T-cells (lectin mediated 51Cr-release assay); assay type: cell-based, BALB/c mice
# Method: as §1, §3, §4
# [6] = system: in vivo primed spleen cells; assay: generation of cytotoxicity in in vivo primed spleen cells (3-day culture, 51Cr-release assay); assay type: cell-based, B10 mice; details: for Index of Cell Recovery after incubation / Lytic Units Per 10⁷ cells: Media + rIL-2 (2U/ml) + 0.5 ng/ml PK-C activator, 3 days of incubation; for Lytic Units Per 10⁷ cells: P815 target cells; for development of CTL: 0.78nM present during incubation with 2 U/ml of rIL-2
# Method: as §1
# B10 mice were immunized in vivo with 5-7.5x10⁶ irradiated P815 (H-2^d) cells. After 2-3 weeks animals were sacrificed and spleen cells were harvested. Red blood cells were lysed with hypotonic salt solution. Cells were incubated with 100 µl of 1/10 diluted M5/114.15.2 mAb containing ascites per 50x10⁶ cells. Following 30 min at room temperature, cells were washed and 100 µl of MAR 18.5 containing cell supernatant and 100 µl of rabbit complement per 50x10⁶ cells were added. Incubation at 37°C was allowed to proceed for 45 min., dead cells were removed by Hypaque-Ficoll centrifugation, washed and then incubated for three days in RPMI media/10% FCS with or without addition of IL-2, PMA or bryostatin as specified in legends of the drawing. Cytotoxicity against Ag-bearing target cells was measured in a ⁵¹Cr-release assay using P815 mastocytoma cells as targets.
# In vivo primed B10 spleen cells were prepared as described above. After a 3-day culture either in the presence of either rIL-2 or rIL-2 plus protein kinase C activator, cytotoxicity was measured in a ⁵¹Cr release assay at the E/T ratios shown in FIG. 2 using 10⁴ P815 target cells/well. Results of cytotoxicity assay are shown for (A) cells cultured with rIL-2 alone (0 U/ml, 2 U/ml, 10 U/ml, 20 U/ml); (B) cells cultured with rIL-2 plus 0.5 ng/ml bryostatin 1; (C) cells cultured with rIL-2 plus 0.5 ng/ml bryostatin 2; and (D) cells cultured with rIL-2 plus 0.5 ng/ml PMA. […]
# HL-60 cell line = details: cited from earlier work
# [7] = 10 ng/ml in combination with Ca⁺⁺ ionophore A23187 0.5 µg/ml
# [8] = bryostatin and BSF-1 added together
Compound,antagonism of tumor promoters (tumor promoters),lysis of EL-4 cells by CTL clone 2C [1],BLT-E secretion (CTL (clone BM10-37); [7]),"BLT-E secretion (CTL (clone BM10-37); added alone, 10 ng/ml)",Ag-specific ⁵¹Cr-release (CTL OE4 cells),ED₅₀ (P388 in vitro cell line) [µg/mL],expression of BLT-E activity in resting T-cells (small resting T-cells [2]),amount of BLT-E on a per cell basis (small resting T-cells [2]),life extension [3],life extension [4],induction of cytotoxicity in small resting T-cells compared to PMA (small resting T-cells [5]),CTL development in resting T-cells (small resting T-cells [5]; added alone),CTL development in resting T-cells (small resting T-cells [5]; [8]),Index of Cell Recovery after incubation [6],Lytic Units Per 10⁷ cells [6] [Lytic Units Per 10⁷ cells],degree of cytotoxicity obtained with high concentrations of rIL-2 [6],"level of ⁵¹Cr-release ([1]; 10 ng/ml, compared to same concentration of PMA or bryostatin 1, all E/T ratios (data not shown))","concentration causing maximal activity (lysis of EL-4 cells) ([1]; plateau, 10-fold higher concentration gave no higher cytotoxicity) [ng/mL]",development of CTL [6],induction of differentiation of the HL-60 cell line (HL-60 cell line)
CCC/C=C/C=C/C(=O)O[C@H]1/C(=C/C(=O)OC)C[C@H]2C[C@H]([C@@H](C)O)OC(=O)C[C@H](O)C[C@@H]3C[C@H](OC(C)=O)C(C)(C)[C@](O)(C[C@@H]4C/C(=C/C(=O)OC)C[C@H](/C=C/C(C)(C)[C@]1(O)O2)O4)O3 [bryostatin 1],antagonists of tumor promoters,caused the lysis of EL-4 cells in a dose dependent manner,slightly lower than that of PMA/Ca²⁺-ionophore,only a slight increase,slightly but consistently higher inhibition,0.89,"Neither growth factors (IL-2, IL-4) nor bryostatin 1 and 2 alone induced expression",dramatically increased,31-68%,52-96%,less effective than PMA,failed to induce CTL development,synergized,0.9,40,enhanced,–,–,–,–
bryostatin 2,antagonists of tumor promoters,caused the lysis of EL-4 cells in a dose dependent manner,always less effective,only a slight increase,decreased,–,"Neither growth factors (IL-2, IL-4) nor bryostatin 1 and 2 alone induced expression",dramatically increased,–,–,consistently induced similar amounts of cytotoxicity,failed to induce CTL development,synergized,1.0,70,enhanced,consistently lower,10,equal in magnitude to that induced by 20 U/ml of IL-2,–
"CCCCCCCCCCCCCC(=O)O[C@@H]1[C@@H](C)[C@@]2(O)[C@@H](C=C(CO)C[C@]3(O)C(=O)C(C)=C[C@@H]23)[C@@H]2C(C)(C)[C@]12OC(C)=O [PMA, 4 β-phorbol-12-myristate 13-acetate, reference compound]",–,–,greatly enhanced,slight BLT-Esterase secretion,–,–,–,–,–,–,–,–,–,1.3,71,enhanced,–,–,equal in magnitude to that induced by 20 U/ml of IL-2,can be induced
